# In EP0366273A1, “Benzopyran derivatives with smooth muscle relaxant activity” (BEECHAM GROUP PLC, priority 1988, dated 1990):
# Experiments:
# [1] = system: guinea pig tracheal spiral preparations; test: Bronchodilation in vitro; guinea pig tracheal spiral preparations; type: cell-based; settings: relaxation relative to total relaxation evoked by 10⁻³M isoprenaline
# Protocol: (a) Bronchodilation in vitro; guinea pig tracheal spiral preparations.
# Male guinea pigs (300-600g) were stunned by a blow to the head and bled from the carotid artery. The trachea was exposed, dissected free of connective tissue, and transferred to oxygenated krebs solution at 37°C. Next, spirals (2 per trachea) were prepared by cutting the whole trachea spirally along its longitudinal axis and then dividing this spiral lengthwise. Each preparation was mounted, using silk thread, in a 10ml organ bath filled with krebs solution at 37°C and bubbled with 5% CO₂ with O₂. The resting tension of the preparations was set at 2g and changes in muscle tension were monitored isometrically by means of a UFI (2oz) force and displacement transducer (Ormed Ltd) connected to a Linseis pen recorder. […] During this equilibration period the preparations were washed by upward displacement at 15 minute intervals and, if necessary, the resting tension was readjusted to 2g using a mechanical micromanipulator system.
# Once a steady resting tension had been obtained, the preparations were dosed cumulatively with the test compound (10⁻⁸-2x10⁻⁵M), and finally a maximum relaxation achieved by addition of 10⁻³M isoprenaline. The fall in tension evoked by the test compound was expressed as a percentage of the total relaxation evoked in the presence of 10⁻³M isoprenaline. […]
# [2] = system: Spontaneously hypertensive rats; test: Blood pressure lowering activity, tail cuff method; type: in vivo; settings: dose 1 mg/kg, initial blood pressure 265 ± 8 mmHg, 6 rats
# Protocol: Blood Pressure Lowering Activity
# Systolic blood pressures were recorded by a modification of the tail cuff method described by I.M. Claxton, M.G. Palfreyman, R.H. Poyser, R.L. Whiting, European Journal of Pharmacology, 37, 179 (1976). A W+W BP recorder, model 8005 was used to display pulses.Prior to all measurements rats were placed in a heated environment (33.5 ± 0.5°C) before transfer to a restraining cage. Each determination of blood pressure was the mean of at least 6 readings. Spontaneously hypertensive rats (ages 12-18 weeks) with systolic blood pressures >180 mmHg were considered hypertensive.
structure (smiles),measurement,setting,value
"CC1(C)Oc2ccc(C#N)cc2C(N2CCCC2=O)C1=O (centres unmarked) [Example 1, 6-Cyano-3,4-dihydro-2,2 dimethyl-4-(2-oxopyrrolidin-1-yl)-2H-1-benzopyran-3-one]",Intrinsic Activity,[1],0.89
same,% Change in Systolic Blood Pressure,[2]; 1 h post dose,-27 ± 5 (6 rats) %
same,% Change in Systolic Blood Pressure,[2]; 2 h post dose,-24 ± 1 (6 rats) %
same,% Change in Systolic Blood Pressure,[2]; 4 h post dose,-19 ± 6 (6 rats) %
same,% Change in Systolic Blood Pressure,[2]; 6 h post dose,-25 ± 5 (6 rats) %
